Earlier results on one substance are cited in patent publication EP0209897A2, “Peptide enzyme inhibitors” (Merck & Co., Inc., priority 1985, dated 1987).

This data set relates to hog renin. Particulars: after the injection of hog renin into nephrectomized rats; Gross et al., Science 175:656, 1971.

For the substance Pepstatin, the “blood pressure in vivo” value is on record as “reduce blood pressure”.
